The values that follow come from US5302621A, “Azasteroid compounds for the treatment of prostatic hypertrophy, their preparation and use” (Sankyo Company, Limited, priority 1990, dated 1994).

One test deals with testosterone 5α-reductase.
Experiment: not given
The following applies: background, U.S. Pat. No. 4,179,453 and 4,760,071; cited from earlier work.
For the compound `CCN(CC)C(=O)C1CCC2C3CCC4NC(=O)C=CC4(C)C3CCC12C` (centres unmarked) [Compound A1], the “5α-reductase inhibitory activity of prior-art compounds, in words” value is listed as “quite a potent activity”.
As for `CC(C)(C)NC(=O)C1CCC2C3CCC4NC(=O)C=CC4(C)C3CCC12C` (centres unmarked) [Compound A2, reference compound], the “5α-reductase inhibitory activity of prior-art compounds, in words” value was “quite a potent activity”.

Another test deals with rat 5α-reductase. The test can be described thus: Assay of Rat 5α-reductase Inhibition. Type of test: biochemical, rat (Sprague-Dawley). The following applies: 10^-8 M test compound; rat prostate 5α-reductase, 1 μM [14C] testosterone, pH 6.5, 37° C., 15 to 30 minutes. How it is done:
The prostatic lobes of a mature male rat (body weight 350-450 g, Sprague-Dawley strain) were cut into small pieces with scissors. About three parts by weight of a buffer solution [20 mM potassium phosphate buffer solution (ph 7.4) containing 0.33M sucrose, 1 mM dithiothreitol, 50 μM nicotinamide adenine dinucleotide phosphate-reduced form (NADPH) and 0.001% PMSF (phenylmethyl sulfonyl fluoride)] were added to one part by weight of the tissue pieces, and the mixture was homogenized first by means of a Polytron (trade mark, KINEMATICA GmbH) homogenizer, and then by means of a Teflon (trade mark) glass homogenizer. The prostatic tissue suspension thus homogenized was then centrifuged (140000×g, 60 minutes) to separate the precipitate.
About three parts by weight of the buffer solution described above were added to one part of the precipitate to suspend it, and the suspension was centrifuged again (140000×g, 60 minutes) to wash it and separate a precipitate, which was regarded as a rat 5α-reductase preparation. Sufficient of the buffer solution described above was added to this precipitate for the protein content of the solution to become between 20 and 40 mg/ml. The solution was frozen and stored at -80° C. The protein content was determined by a Bio-Rad protein assay in which bovine γ-globulin (Cohn Fraction II, Sigma) was used as the protein standard.
5 μl of a dimethyl sulfoxide or ethanol solution in which a test compound to be tested was dissolved were added to 0.5 ml of a 40 mM potassium phosphate buffer solution (pH 6.5) containing rat 5α-reductase (protein content, 1 mg), 1 μM [^14 C] testosterone, 1 mM dithiothreitol and 500 μM NADPH (final concentration 10^-8 M of the test compound), and incubated for 15 to 30 minutes at 37° C. As a control, only the solvent was added to one sample. 2 ml of ethyl acetate containing 10 μg each of testosterone, 5α-dihydrotestosterone and androstenedione were then added to stop the reaction. The mixture was centrifuged (1400×g, 5 minutes). The ethyl acetate layer was separated and transferred to another test tube, where it was evaporated to dryness whilst spraying it with nitrogen gas. The steroids were dissolved in 40 μl of ethyl acetate. The solution was spotted on a thin layer chromatographic plate (LK5DF silica plate, Whatman), and developed with a mixture of ethyl acetate with cyclohexane (1:1 by volume) twice at room temperature. The steroid fraction was identified by color development by ultraviolet radiation or by heating with a […]/10% sulfuric acid solution. The radioactivity on the thin layer chromatographic plate was measured by means of a bio-image analyzer (Fuji Film Co. Ltd.). The enzyme activity was given by the amount [conversion rate (%)] of [^14 C] 5α-dihydro-testosterone which was converted from the [^14 C] testosterone initially added. The rat 5α-reductase inhibiting activity of a test sample was calculated from the following equation: [formula]
`C[C@]12C=CC(=O)N[C@@H]1CC[C@@H]1[C@@H]2CC[C@]2(C)[C@@H](C(=O)NC(Cc3ccccc3)c3ccccc3)CC[C@@H]12` (stereo partly drawn) [Example No. 8, N-(1,2-Diphenylethyl)-3-oxo-4-aza-5α-androst-1-ene-17β-carboxamide]: the “Rat 5α-reductase inhibiting activity: Inhibiting activity (%)” value (“Rat 5α-reductase inhibiting activity … (%)” below) is given as 74.6%.
The same measure, in the same setting: next, `C[C@]12C=CC(=O)N[C@@H]1CC[C@@H]1[C@@H]2CC[C@]2(C)[C@@H](C(=O)NN(c3ccccc3)c3ccccc3)CC[C@@H]12` [Example No. 65, N,N-Diphenyl-3-oxo-4-aza-5α-androst-1-ene-17β-carbohydrazide]: 80.0%; `CC(C)(C)NC(=O)C1CCC2C3CCC4NC(=O)C=CC4(C)C3CCC12C` (centres unmarked) [Compound A2, reference compound]: 30.0%.
As for `CN1C(=O)CC[C@]2(C)[C@H]3CC[C@]4(C)[C@@H](C(=O)NC(c5ccccc5)c5ccccc5)CC[C@H]4[C@@H]3CC[C@@H]12` [Example No. 20, N-(Diphenylmethyl)-4-methyl-3-oxo-4-aza-5α-androstane-17β-carboxamide], the “Rat 5α-reductase inhibiting activity … (%)” value came out at 86.7%.
Same read-out and setting: the same measure for `CN1C(=O)CC[C@]2(C)[C@H]3CC[C@]4(C)[C@@H](C(=O)NC(C)(c5ccccc5)c5ccccc5)CC[C@H]4[C@@H]3CC[C@@H]12` [Example No. 26, N-(1,1-Diphenylethyl)-4-methyl-3-oxo-4-aza-5α-androstane-17β-carboxamide]: 87.3%; for `CN1C(=O)CC[C@@]2(C)C1=CC[C@H]1[C@@H]3CC[C@H](C(=O)NC(C)(C)c4ccccc4)[C@@]3(C)CC[C@@H]12` [Example No. 42, N-(1-Methyl-1-phenylethyl)-4-methyl-3-oxo-4-aza-androst-5-ene-17β-carboxamide]: 72.3%.
As for `C[C@]12CC[C@H]3[C@@H](CC=C4NC(=O)CC[C@@]43C)[C@@H]1CC[C@@H]2C(=O)NC(Cc1ccccc1)c1ccccc1` (stereo partly drawn) [Example No. 12, N-(1,2-Diphenylethyl)-3-oxo-4-azaandrost-5-ene-17β-carboxamide], the “Rat 5α-reductase inhibiting activity … (%)” value was 78.4%.
Turning to `C[C@]12CCC(=O)N[C@@H]1CC[C@@H]1[C@@H]2CC[C@]2(C)[C@@H](C(=O)NC(c3ccccc3)c3ccccc3)CC[C@@H]12` [Example No. 1, N-(Diphenylmethyl)-3-oxo-4-aza-5α-androstane-17β-carboxamide], the “Rat 5α-reductase inhibiting activity … (%)” value is 89.2%.
Same read-out and setting: next, `Cc1ccc(C[C@H](NC(=O)[C@H]2CC[C@H]3[C@@H]4CC[C@H]5NC(=O)CC[C@]5(C)[C@H]4CC[C@]23C)c2ccccc2)cc1` [Example No. 62, N-[(S)-2-(4-Methylphenyl)-1-phenylethyl]-3-oxo-4-aza-5α-androstane-17β-carboxamide]: 90.1%; `C[C@]12C=CC(=O)N[C@@H]1CC[C@@H]1[C@@H]2CC[C@]2(C)[C@@H](C(=O)N[C@H](c3ccccc3)[C@@H](O)c3ccccc3)CC[C@@H]12` [Example No. 73, N-[(1R,2S)-2-Hydroxy-1,2-diphenylethyl]-3-oxo-4-aza-5α-androst-1-ene-17β-carboxamide]: 80.5%; `C[C@]12CCC(=O)N[C@@H]1CC[C@@H]1[C@@H]2CC[C@]2(C)[C@@H](C(=O)NC(Cc3ccccc3)c3ccccc3)CC[C@@H]12` (stereo partly drawn) [Example No. 3, N-(1,2-Diphenylethyl)-3-oxo-4-aza-5α-androstane-17β-carboxamide]: 89.1%.
Still for that read-out and setting: the same measure for `C[C@]12CCC(=O)N[C@@H]1CC[C@@H]1[C@@H]2CC[C@]2(C)[C@@H](C(=O)N(Cc3ccccc3)Cc3ccccc3)CC[C@@H]12` [Example No. 4, N,N-Dibenzyl-3-oxo-4-aza-5α-androstane-17β-carboxamide]: 74.1%.
For `COc1ccc(C(C)(C)NC(=O)[C@H]2CC[C@H]3[C@@H]4CC[C@H]5NC(=O)C=C[C@]5(C)[C@H]4CC[C@]23C)cc1` [Example No. 44, N-[1-(4-Methoxyphenyl)-1-methylethyl]-3-oxo-4-aza-5α-androst-1-ene-17β-carboxamide], the “Rat 5α-reductase inhibiting activity … (%)” value stood at 73.2%.
On the same count and under the same terms, next, `CC(C)(NC(=O)[C@H]1CC[C@H]2[C@@H]3CC[C@H]4NC(=O)CC[C@]4(C)[C@H]3CC[C@]12C)c1ccccc1` [Example No. 37, N-(1-Methyl-1-phenylethyl)-3-oxo-4-aza-5α-androstane-17β-carboxamide]: 82.2%; `CN1C(=O)CC[C@]2(C)[C@H]3CC[C@]4(C)[C@@H](C(=O)NC(C)(C)c5ccccc5)CC[C@H]4[C@@H]3CC[C@@H]12` [Example No. 40, N-(1-Methyl-1-phenylethyl)-4-methyl-3-oxo-4-aza-5α-androstane-17β-carboxamide]: 88.6%.
